Results: patent US10921325B2, “Composition for anticancer adjuvant comprising RIP3 expression promoter as active ingredient, method for screening anticancer adjuvant which promotes RIP3 expression and enhances sensitivity of anticancer agent, and method for monitoring sensitivity of anticancer agent” (AJOU UNIVERSITY INDUSTRY-ACADEMIC COOPERATION FOUNDATION, priority 2015, dated 2021)

What was measured:
[1] = system: RIP3 expression in MDA-MB231 tumor tissue; experiment: RIP3 expression in isolated xenograft tumor tissue (RT-PCR, IHC); format: in vivo, BALB/c nude mice; settings: group treated with 5-AD
Description: Immunohistochemistry was performed using the UltraVision LP Detection System TL-060-HD (Thermo Scientific, Bioanalytica) according to the manufactures instructions. Thin paraffin sections (4.5 μm) were deparaffinized in xylene and rehydrated in a graded series of ethanol-aqueous solutions. Antigen retrieval was done by heating the slides for 15 min in a microwave oven in 10 mM citrate buffer (pH 6.0). Endogenous peroxidase activity was blocked by incubation in 3% hydrogen peroxide in TBS for 10 min, and then the sections were incubated overnight at 4° C. in 1:300 dilutions of anti-RIP3 antibody. Chromogen was developed for 5 min with 3,3′-diaminobenzidine (TL-015-HD, Them© Scientific, Bioanalytica, Greece) solution and counterstained with Meyer's hematoxylin. Immunohistochemical staining was evaluated based on the proportion of stained cells and immunostaining intensity. H-score used in the present invention was obtained by multiplying the proportion of stained cells (i) and staining intensity graded 0 (negative), 1 (weak), 2 (moderate), or 3 (strong). H-score ranged from 0 to 300. Staining was carried out for tumor and normal tissues for each sample for the same time. Staining was interpreted by an experienced pathologist blinded to the clinical data.
In addition, RNA was extracted from the isolated tumor tissue and subjected to RT-PCR. […]

[2] = system: RIP3 expression in RIP3-silenced cancer cell lines; experiment: RIP3 expression in RIP3-silenced cancer cell lines treated with demethylating agent (Western blotting)
Description: Cells were lysed in M2 buffer. Equal amounts of cell extracts were analyzed by SDS-PAGE and immunoblotting, and visualized by enhanced chemiluminescence (ECL, Amersham). A variety of RIP3-silenced cancer cell lines (including liver cancer, cervical cancer, prostate cancer, brain cancer, ovarian cancer, skin cancer, lung cancer, breast cancer, blood cancer, colorectal cancer, and bladder cancer) were grown to a confluence of 10-20%, and then treated twice with 5-AD for 4 days, after which RIP3 expression patterns in the cell lines were analyzed by a Western blotting technique.

[3] = system: RIP3 expression in non-target and shRIP3 cancer cell lines; experiment: RIP3 expression in non-target and shRIP3 cell lines treated with 5-AD (Western blotting); format: cell-based, human; settings: treated twice with 5-AD for 4 days
Description: (§1) A MISSION short-hairpin RNA (shRNA) plasmid that targets the coding region or 3′ UTR of hRIP3 mRNA (NM_006871) or a non-target control sequence (NM-027088) were obtained from Sigma-Aldrich. A Lentivirus plasmid was transfected into 293T cells (System Biosciences, LV900A-1) using Lipofectamine 2000 (Invitrogen, 11668019). Pseudoviral particles were collected at 2 days after transfection of the Lentivirus plasmid and infected into various cancer cells in the presence of polybrene (10 μg/mL). At 2 days after infection, infected cells were selected with puromycin, and RIP3 knockdown was confirmed by immunoblotting. Cells without expression endogenous RIP3 were afterwards treated with 5-AD for 4 days and analyzed by immunoblotting.
Cells were lysed in M2 buffer.
(§2) Since a demethylating agent (5-AD or 5-AZA) is not a drug specific for a particular protein, it may cause expression of various proteins in addition to RIP3. […] After whether RIP3 was expressed was determined, a cell viability assay was performed.

[4] = system: MDA-MB231 breast cancer cell line tumors; experiment: MDA-MB231 mouse xenograft model, combined treatment with 5-AD and Doxorubicin; format: in vivo, BALB/c nude mice
Description: In order to verify the sensitization effect induced by RIP3 expression in experimental animal models, the MDA-MB231 breast cancer cell line that expresses no RIP3 was injected into BALB/c nude mice to form tumors. Next, the mice were injected with 5-AD for 1 week, and then injected with Doxorubicin for 33 days, and a change in the volume of the tumor tissue was measured. […] In addition, the tumor tissue was isolated after the last drug treatment, and the mass thereof was measured. […] The tumor tissue subjected to combined treatment with 5-AD and Doxorubicin was prepared into a paraffin block which was then visualized by H&E staining, p-H2AX antibody staining, and TUNEL staining.

[5] = system: non-target cell line and shRIP3 cell line; experiment: Cell viability (MTT) of non-target and shRIP3 cell lines after combined treatment with demethylating agent and anticancer drug; format: cell-based, human
Description: as §1, with “μg/mL).” for “μg/mL). At 2 days after infection, infected cells were selected with puromycin, and RIP3 knockdown was confirmed by immunoblotting. Cells without expression endogenous RIP3 were afterwards treated with 5-AD for 4 days and analyzed by immunoblotting.”
(§3) Cell viability was determined using tetrazolium dye colorimetric test (MTT assay) at 570 nm.
as §2

[6] = system: HeLa, MDA-MB231 and DLD-1 cancer cell lines; experiment: Sensitization to cancer cell death by combined treatment with demethylating agent and anticancer drug; format: cell-based
Description: as §3
The same number of HeLa, MDA-MB231 and DLD-1 cancer cell lines not treated with a drug were also grown, and then treated with the same concentration of an anticancer drug. The effect of the demethylating agent on sensitization to cell death was analyzed.

[7] = system: RIP3 expression in HeLa cervical cell line and DLD-1 colorectal cancer cell line; experiment: RIP3 expression at mRNA or protein level in HeLa and DLD-1 cells treated with demethylating agent; format: cell-based; settings: HeLa and DLD-1 cell lines which expressed no RIP3
[8] = system: T47D cells; experiment: Viability (MTT) of RIP3-silenced T47D cells treated with anticancer drug; format: cell-based, human; settings: 48 hours; for anticancer drug resistance (MTT assay): T47D RIP3-knocked down test group, versus control group; for cell death (MTT assay): T47D control group
Description: The T47D cell line which is a breast cancer cell line expressing RIP3 was used to identify the role of RIP3 in various kinds of cancel. First, the shRIP3 T47D cell line was prepared in the same manner as described in Example 7.
In order to examine whether RIP3 increases anticancer drug sensitivity in T47D breast cancer cells, an MTT assay was performed. A control group and a RIP3-knocked down test group were incubated with doxorubicin, etoposide and taxol at the concentrations shown in FIG. 15 (right) for 48 hours.

[9] = system: HT-29 cells; experiment: Viability (MTT) of RIP3-silenced HT-29 cells treated with anticancer drug; format: cell-based, human; settings: 48 hours
Description: In order to identify the role of RIP3 in anticancer drug sensitivity, the HT-29 cell line which is a representative cancer cell line expressing RIP3 was used. To identity the function of RIP3, RIP3 expression was inhibited using the shRNA system and analyzed by a Western blotting technique.
In the present invention, in order to examine whether the RIP3 gene is associated with anticancer drug sensitivity, HT-29 cells transfected with RIP3 shRNA were treated with varying concentrations of doxorubicin and etoposide, and then the cell viability of the cancer cells was measured. Particularly, HT-29 cells transfected with RIP3 shRNA were treated with 2.5 μM and 5 μM of doxorubicin and 50 μM and 100 μM of etoposide, and then incubated for 48 hours. After the medium was replaced with a fresh medium containing 0.1 mg of MTT (3-([4,5-dimethylthiazol-2-yl]-2,5-diphenyltetrazolium bromide), the cells were further incubated for 2 hours. Colorimetric analysis was performed on a precipitate obtained by reducing a tetrazolium salt, in which viable cells is dissolved, into a purple formazan crystal. Next, the medium was removed, and the produced formazan crystal was dissolved in 500 μl of DMSO, and the absorbance was measured using an ELISA reader at 570 nm. Cell viability was expressed as a percentage relative to the control taken as 100% viability.

[10] = non-target cell line, anticancer drug combined with demethylating agent (5-AD)
[11] = anticancer drug in combined treatment with the demethylating agent (5-AD or 5-AZA)
[12] = HT-29 control group, doxorubicin 2.5 and 5 μM, etoposide 50 and 100 μM
[13] = HT-29 with RIP3 knocked down with shRNA, versus control group

For `Nc1ncn([C@H]2C[C@H](O)[C@@H](CO)O2)c(=O)n1` [5-AD, 5-aza-2′-deoxycytidine], the “RIP3 expression (RT-PCR)” value ([1]; RNA from isolated tumor tissue) was “increased”, the “RIP3 expression (immunohistochemistry)” value ([1]; paraffin block of isolated tumor tissue) was “RIP3 expression was increased” and the RIP3 expression ([2]; cancer cell lines that expressed no RIP3, 5-AD 2 uM, treated twice for 4 days, Western blotting) was “RIP3 expression was induced”. The RIP3 expression ([3]; non-target cell line) was “RIP3 expression was induced”, the RIP3 expression ([3]; shRIP3 cell line, Western blotting) was “RIP3 was not expressed” and the “volume of the tumor tissue” value ([4]; 5-AD for 1 week then Doxorubicin for 33 days, combined treatment compared to Doxorubicin alone) was “significantly reduced”. For the same molecule, the “H&E staining, p-H2AX antibody staining and TUNEL staining of tumor tissue” value ([4]; combined treatment with 5-AD and Doxorubicin) was “the death of the cancer cells occurred by the combined treatment”, the “mass of tumor tissue” value ([4]; tumor isolated after the last drug treatment, combined treatment with Doxorubicin and 5-AD) was “significantly reduced” and the “sensitization to cell death” value ([5]; shRIP3 cell line that expresses no RIP3, 5-AD combined with anticancer drug) was “the sensitization effect was inhibited”. For the same molecule, the “sensitization to cell death” value ([6]; cervical, breast, colorectal and bladder cancer cell lines treated with the anticancer drug after RIP3 induction by 5-AD) was “sensitized to cell death”.

`Nc1ncn([C@@H]2O[C@H](CO)[C@@H](O)[C@H]2O)c(=O)n1` [5-AZA, 5-azacytidine] was tested, and the RIP3 expression ([2]; cancer cell lines of Example 3, treated twice for 4 days) was “induced RIP3 expression” and the RIP3 expression [7] was “RIP3 expression was induced”.

`O=c1[nH]cc(F)c(=O)[nH]1` [5-FU] was tested, and the “sensitization to cell death” value [5, 10] was “showed the effect of sensitizing the cancer cell line to cell line” and the “sensitization to cell death” value [6, 11] was “showed the effect of sensitizing the cancer cell lines to cell death”.

`CC[C@@]1(O)C(=O)OCc2c1cc1n(c2=O)Cc2cc3ccccc3nc2-1` [CPT] was tested, and the “sensitization to cell death” value [5, 10] was “showed the effect of sensitizing the cancer cell line to cell line” and the “sensitization to cell death” value [6, 11] was “showed the effect of sensitizing the cancer cell lines to cell death”.

In the case of `N.N.[Cl][Pt][Cl]` [Cisplatin, cisplatin], the “sensitization to cell death” value [5, 10] is reported as “showed the effect of sensitizing the cancer cell line to cell line” and the “sensitization to cell death” value [6, 11] is reported as “showed the effect of sensitizing the cancer cell lines to cell death”.

With `COc1cccc2c1C(=O)c1c(O)c3c(c(O)c1C2=O)C[C@@](O)(C(=O)CO)C[C@@H]3O[C@H]1C[C@H](N)[C@H](O)[C@H](C)O1` [Doxorubicin, doxorubicin] the “anticancer drug resistance (MTT assay)” value [8] was “significantly increased compared to that of the control group”, the “cell death (MTT assay)” value [8] was “killed depending on the concentration” and the “sensitization to cell death” value [5, 10] was “showed the effect of sensitizing the cancer cell line to cell line”. The “sensitization to cell death” value [6, 11] was “showed the effect of sensitizing the cancer cell lines to cell death”, the cell viability [9, 12] was “the cell viability decreased depending on the concentration” and the cell viability [9, 13] was “the cell viability significantly increased compared to that of the control group”.

`COc1cc([C@@H]2c3cc4c(cc3[C@@H](O[C@@H]3O[C@@H]5CO[C@@H](C)O[C@H]5[C@H](O)[C@H]3O)[C@H]3COC(=O)[C@H]23)OCO4)cc(OC)c1O` [Etoposide, etoposide] was tested, and the “anticancer drug resistance (MTT assay)” value [8] was “significantly increased compared to that of the control group”, the “cell death (MTT assay)” value [8] was “killed depending on the concentration” and the “sensitization to cell death” value [5, 10] was “showed the effect of sensitizing the cancer cell line to cell line”. For the same molecule, the “sensitization to cell death” value [6, 11] was “showed the effect of sensitizing the cancer cell lines to cell death”, the cell viability [9, 12] was “the cell viability decreased depending on the concentration” and the cell viability [9, 13] was “the cell viability significantly increased compared to that of the control group”.

`CC(=O)O[C@H]1C(=O)[C@@]2(C)[C@H]([C@H](OC(=O)c3ccccc3)[C@]3(O)C[C@H](OC(=O)[C@H](O)[C@@H](NC(=O)c4ccccc4)c4ccccc4)C(C)=C1C3(C)C)[C@]1(OC(C)=O)CO[C@@H]1C[C@@H]2O` [Paclitaxel, paclitaxel] was tested, and the “anticancer drug resistance (MTT assay)” value [8] was “significantly increased compared to that of the control group”, the “cell death (MTT assay)” value [8] was “killed depending on the concentration” and the “sensitization to cell death” value [6, 11] was “showed the effect of sensitizing the cancer cell lines to cell death”.

For `O=C(O)C(Cc1c[nH]c2ccccc12)N1C(=O)c2ccccc2C1=O` (stereo not shown) [RG108], the RIP3 expression [7] was “RIP3 expression was induced”.
